Data published in patent US12319672B2, “Alpha-D-galactopyranoside derivatives” (Idorsia Pharmaceuticals Ltd, priority 2019, dated 2025).

How the values were obtained:
[1] = biological target: human Gal-1 (hGal-1); experiment: Competitive binding assay: binding of biotinylated hGal-1 to microplate-adsorbed asialofetuin (ASF); conditions: Activities on hGal-1; mean values of several measurements
Method in brief: (§1)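 Biotin-hGal-3/hGal-1 300-1000 ng/mL + cpd (DMSO dilutions) on ASF-coated plate, 3 h 4° C; wash; SA-HRP 80 ng/mL 1 h 4° C; wash; ABTS. IC50 = mean of several runs. hGal-1 preferably Cys→Ser (all six) mutant.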

[2] = biological target: human Gal-3 (hGal-3) (Homo sapiens (Human), UniProt P17931); experiment: Competitive binding assay: binding of biotinylated hGal-3 to microplate-adsorbed asialofetuin (ASF); conditions: Activity on hGal-3; mean values of several measurements
Method in brief: as §1

Sequence of human Gal-3 (hGal-3) (P17931 whole entry): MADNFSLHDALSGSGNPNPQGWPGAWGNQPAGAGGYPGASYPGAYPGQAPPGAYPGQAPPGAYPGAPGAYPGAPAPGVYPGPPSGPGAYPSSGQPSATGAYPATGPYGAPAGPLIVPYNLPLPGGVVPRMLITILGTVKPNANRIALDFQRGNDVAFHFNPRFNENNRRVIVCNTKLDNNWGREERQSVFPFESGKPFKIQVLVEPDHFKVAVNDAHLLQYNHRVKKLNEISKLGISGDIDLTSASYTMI
Sequence of human Gal-1 (hGal-1) (P09382 2-135 limits assumed): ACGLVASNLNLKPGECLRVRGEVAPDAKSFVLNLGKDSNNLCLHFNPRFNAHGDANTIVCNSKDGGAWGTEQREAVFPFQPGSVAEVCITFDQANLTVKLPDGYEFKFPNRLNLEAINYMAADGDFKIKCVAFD

Row | IC50 [1] [nM] | IC50 [2] [nM] | Compound
1 | 4220 | 75 | CO[C@@H]1[C@@H](n2cc(-c3ccc(C)c(F)c3F)nn2)[C@@H](O)[C@@H](CO)O[C@@H]1Cc1cc(C(C)(C)O)on1 [Ex 1.237]
2 | 2580 | 79 | CO[C@@H]1[C@@H](n2cc(-c3ccc(C)c(F)c3F)nn2)[C@@H](O)[C@@H](CO)O[C@@H]1Cc1cc(C2(O)CCC2)on1 [Ex 1.241]
3 | 2900 | 68 | CO[C@@H]1[C@@H](n2cc(-c3ccc(Cl)c(F)c3F)nn2)[C@@H](O)[C@@H](CO)O[C@@H]1Cc1cc(C(C)(C)O)on1 [Ex 1.242]
4 | 250 | 57 | CO[C@@H]1[C@@H](n2cc(-c3ccc(F)c(F)c3F)nn2)[C@@H](O)[C@@H](CO)O[C@@H]1Cc1cc(C(C)(C)C)no1 [Ex 1.250]
5 | 280 | 58 | CO[C@@H]1[C@@H](n2cc(-c3ccc(F)c(F)c3F)nn2)[C@@H](O)[C@@H](CO)O[C@@H]1Cc1cc(C(C)(C)CO)no1 [Ex 1.253]
6 | 1110 | 31 | CO[C@@H]1[C@@H](n2cc(-c3ccc(C)c(F)c3F)nn2)[C@@H](O)[C@@H](CO)O[C@@H]1Cc1cc(C(C)(C)C)no1 [Ex 1.254]
7 | 2060 | 32 | CO[C@@H]1[C@@H](n2cc(-c3ccc(C)c(F)c3F)nn2)[C@@H](O)[C@@H](CO)O[C@@H]1Cc1cc(C2(C)CC2)no1 [Ex 1.255]
8 | 1560 | 55 | CO[C@@H]1[C@@H](n2cc(-c3ccc(C)c(F)c3F)nn2)[C@@H](O)[C@@H](CO)O[C@@H]1Cc1cc(C2(C)COC2)no1 [Ex 1.256]
9 | 1780 | 44 | CO[C@@H]1[C@@H](n2cc(-c3ccc(C)c(F)c3F)nn2)[C@@H](O)[C@@H](CO)O[C@@H]1Cc1cc(C(C)(C)CO)no1 [Ex 1.257]
10 | 980 | 37 | CO[C@@H]1[C@@H](n2cc(-c3ccc(Cl)c(F)c3F)nn2)[C@@H](O)[C@@H](CO)O[C@@H]1Cc1cc(C(C)(C)C)no1 [Ex 1.258]
11 | 1050 | 42 | CO[C@@H]1[C@@H](n2cc(-c3ccc(Cl)c(F)c3F)nn2)[C@@H](O)[C@@H](CO)O[C@@H]1Cc1cc(C(C)(C)CO)no1 [Ex 1.261]
12 | 330 | 70 | CO[C@@H]1[C@@H](n2cc(-c3ccc(F)c(F)c3F)nn2)[C@@H](O)[C@@H](CO)O[C@@H]1Cc1cc(C(C)(CO)CCl)no1 (stereo partly drawn) [Ex 1.262]
13 | 1030 | 58 | CO[C@@H]1[C@@H](n2cc(-c3ccc(C)c(F)c3F)nn2)[C@@H](O)[C@@H](CO)O[C@@H]1Cc1cc(C(C)(CO)CCl)no1 (stereo partly drawn) [Ex 1.263]
14 | 1610 | 71 | CO[C@@H]1[C@@H](n2cc(-c3ccc(Cl)c(F)c3F)nn2)[C@@H](O)[C@@H](CO)O[C@@H]1Cc1cc(C(C)(CO)CCl)no1 (stereo partly drawn) [Ex 1.264]
15 | 6100 | 160 | CO[C@@H]1[C@@H](n2cc(-c3ccc(C#N)c(F)c3F)nn2)[C@@H](O)[C@@H](CO)O[C@@H]1Cc1cc(C(C)(C)C)on1 [Ex 1.267]
16 | 5540 | 110 | CO[C@@H]1[C@@H](n2cc(-c3ccc(C)c(F)c3F)nn2)[C@@H](O)[C@@H](CO)O[C@@H]1Cc1cc(C2(C)CCCC2)on1 [Ex 1.274]

Further lines, the compound ahead of its results:

Row | Compound | IC50 [1] [nM] | IC50 [2] [nM]
17 | CO[C@@H]1[C@@H](n2cc(-c3ccc(F)c(F)c3F)nn2)[C@@H](O)[C@@H](CO)O[C@@H]1Cc1cc(C2(O)CCCCC2)on1 [Ex 1.233] | 1330 | 88
18 | CO[C@@H]1[C@@H](n2cc(-c3ccc(F)c(F)c3F)nn2)[C@@H](O)[C@@H](CO)O[C@@H]1Cc1cc(C2(O)CCCC2)on1 [Ex 1.234] | 1270 | 57
19 | CO[C@@H]1[C@@H](n2cc(-c3ccc(F)c(F)c3F)nn2)[C@@H](O)[C@@H](CO)O[C@@H]1Cc1cc(C2CCCC2)on1 [Ex 1.235] | 1330 | 100
20 | CO[C@@H]1[C@@H](n2cc(-c3ccc(F)c(F)c3F)nn2)[C@@H](O)[C@@H](CO)O[C@@H]1Cc1cc(C2(O)CCC2)on1 [Ex 1.236] | 960 | 57
21 | CO[C@@H]1[C@@H](n2cc(-c3ccc(C)c(F)c3F)nn2)[C@@H](O)[C@@H](CO)O[C@@H]1Cc1cc(C2(O)CCCCC2)on1 [Ex 1.238] | 3740 | 45
22 | CO[C@@H]1[C@@H](n2cc(-c3ccc(C)c(F)c3F)nn2)[C@@H](O)[C@@H](CO)O[C@@H]1Cc1cc(C2(O)CCCC2)on1 [Ex 1.239] | 6440 | 72
23 | CO[C@@H]1[C@@H](n2cc(-c3ccc(C)c(F)c3F)nn2)[C@@H](O)[C@@H](CO)O[C@@H]1Cc1cc(C2CCCC2)on1 [Ex 1.240] | 13900 | 100
24 | CO[C@@H]1[C@@H](n2cc(-c3ccc(Cl)c(F)c3F)nn2)[C@@H](O)[C@@H](CO)O[C@@H]1Cc1cc(C2(O)CCCCC2)on1 [Ex 1.243] | 1330 | 42
25 | CO[C@@H]1[C@@H](n2cc(-c3ccc(Cl)c(F)c3F)nn2)[C@@H](O)[C@@H](CO)O[C@@H]1Cc1cc(C2(O)CCCC2)on1 [Ex 1.244] | 3290 | 110
26 | CO[C@@H]1[C@@H](n2cc(-c3ccc(Cl)c(F)c3F)nn2)[C@@H](O)[C@@H](CO)O[C@@H]1Cc1cc(C2CCCC2)on1 [Ex 1.245] | 1860 | 67
27 | CO[C@@H]1[C@@H](n2cc(-c3ccc(Cl)c(F)c3F)nn2)[C@@H](O)[C@@H](CO)O[C@@H]1Cc1cc(C2(O)CCC2)on1 [Ex 1.246] | 1720 | 73
28 | CO[C@@H]1[C@@H](n2cc(-c3cc(F)c(C)cc3F)nn2)[C@@H](O)[C@@H](CO)O[C@@H]1Cc1cc(C(C)(C)C)on1 [Ex 1.247] | 2290 | 210
29 | CO[C@@H]1[C@@H](n2cc(-c3cc(F)c(C)cc3F)nn2)[C@@H](O)[C@@H](CO)O[C@@H]1Cc1cc(C2CCCCC2)on1 [Ex 1.248] | > 100000 | 700
30 | CO[C@@H]1[C@@H](n2cc(-c3ccc(Br)c(F)c3)nn2)[C@@H](O)[C@@H](CO)O[C@@H]1Cc1cc(C2CCN(C(=O)OC(C)(C)C)CC2)on1 [Ex 1.249] | 1780 | 150
31 | CO[C@@H]1[C@@H](n2cc(-c3ccc(F)c(F)c3F)nn2)[C@@H](O)[C@@H](CO)O[C@@H]1Cc1cc(C2(C)CC2)no1 [Ex 1.251] | 360 | 44
32 | CO[C@@H]1[C@@H](n2cc(-c3ccc(F)c(F)c3F)nn2)[C@@H](O)[C@@H](CO)O[C@@H]1Cc1cc(C2(C)COC2)no1 [Ex 1.252] | 280 | 69

Row | Compound | IC50 [1] [nM] | IC50 [2] [nM]
33 | CO[C@@H]1[C@@H](n2cc(-c3ccc(Cl)c(F)c3F)nn2)[C@@H](O)[C@@H](CO)O[C@@H]1Cc1cc(C2(C)CC2)no1 [Ex 1.259] | 620 | 33
34 | CO[C@@H]1[C@@H](n2cc(-c3ccc(Cl)c(F)c3F)nn2)[C@@H](O)[C@@H](CO)O[C@@H]1Cc1cc(C2(C)COC2)no1 [Ex 1.260] | 1410 | 63
35 | CO[C@@H]1[C@@H](n2cc(-c3cc(F)c(F)c(F)c3)nn2)[C@@H](O)[C@@H](CO)O[C@@H]1CC1CC(C(C)(C)C)=NO1 (stereo partly drawn) [Ex 1.265] | 2580 | 250
36 | CO[C@@H]1[C@@H](n2cc(-c3ccc(Cl)c(F)c3F)nn2)[C@@H](O)[C@@H](CO)O[C@@H]1CC1CC(C(C)(C)C)=NO1 (stereo partly drawn) [Ex 1.266] | 1560 | 91
37 | CO[C@@H]1[C@@H](n2cc(-c3cc(F)c(F)c(F)c3)nn2)[C@@H](O)[C@@H](CO)O[C@@H]1Cc1cc(C2(C)CCOCC2)on1 [Ex 1.268] | 2490 | 110
38 | CO[C@@H]1[C@@H](n2cc(-c3ccc(F)c(F)c3F)nn2)[C@@H](O)[C@@H](CO)O[C@@H]1Cc1cc(C2(C)CCOCC2)on1 [Ex 1.269] | 900 | 49
39 | CO[C@@H]1[C@@H](n2cc(-c3ccc(C)c(F)c3F)nn2)[C@@H](O)[C@@H](CO)O[C@@H]1Cc1cc(C2(C)CCOCC2)on1 [Ex 1.270] | 3550 | 38
40 | CO[C@@H]1[C@@H](n2cc(-c3ccc(Cl)c(F)c3F)nn2)[C@@H](O)[C@@H](CO)O[C@@H]1Cc1cc(C2(C)CCOCC2)on1 [Ex 1.271] | 1660 | 49
41 | CO[C@@H]1[C@@H](n2cc(-c3cc(F)c(F)c(F)c3)nn2)[C@@H](O)[C@@H](CO)O[C@@H]1Cc1cc(C2(C)CCCC2)on1 [Ex 1.272] | 3490 | 250
42 | CO[C@@H]1[C@@H](n2cc(-c3ccc(F)c(F)c3F)nn2)[C@@H](O)[C@@H](CO)O[C@@H]1Cc1cc(C2(C)CCCC2)on1 [Ex 1.273] | 720 | 66
43 | CO[C@@H]1[C@@H](n2cc(-c3ccc(Cl)c(F)c3F)nn2)[C@@H](O)[C@@H](CO)O[C@@H]1Cc1cc(C2(C)CCCC2)on1 [Ex 1.275] | 3300 | 110
44 | CO[C@@H]1[C@@H](n2cc(-c3cc(F)c(F)c(F)c3)nn2)[C@@H](O)[C@@H](CO)O[C@@H]1Cc1cc(C2(C#N)CCCC2)on1 [Ex 1.276] | 5100 | 97
45 | CO[C@@H]1[C@@H](n2cc(-c3ccc(C)c(F)c3F)nn2)[C@@H](O)[C@@H](CO)O[C@@H]1Cc1cc(C2(C#N)CCCC2)on1 [Ex 1.278] | 6700 | 93
46 | CO[C@@H]1[C@@H](n2cc(-c3ccc(Cl)c(F)c3F)nn2)[C@@H](O)[C@@H](CO)O[C@@H]1CC1CC(C(C)(C)CO)=NO1 (stereo partly drawn) [Ex 1.280] | 1820 | 300
47 | CO[C@@H]1[C@@H](n2cc(-c3cc(F)c(F)c(F)c3)nn2)[C@@H](O)[C@@H](CO)O[C@@H]1CC1CC(C(C)(C)CO)=NO1 (stereo partly drawn) [Ex 1.281] | 2550 | 530
48 | CO[C@@H]1[C@@H](n2cc(-c3cc(F)c(F)c(F)c3)nn2)[C@@H](O)[C@@H](CO)O[C@@H]1Cc1cc(C2(C)CCOCC2)no1 [Ex 1.282] | 1770 | 110
